Test results published in patent US11702635B2, “Hematopoietic stem cell expansion method” (PLASTICELL LIMITED, priority 2017, dated 2023).

Tests used:
[1] = test system: UCB CD133+ cells (HSPC); test: Ex vivo expansion of umbilical cord blood CD133+ cells, flow cytometry and cell counting; format: cell-based, human; conditions: for fold expansion of total nucleated cells (TNC) compared to cells grown in basal media / fold expansion of HSC (Lin-, CD38-, CD34+, CD45RA-, CD133+, CD90+, CD49f+) higher than basal media containing cytokines: 5 day culture; for fold expansion of total nucleated cells (TNC) compared to cells grown in basal media: HDAC inhibitor with cytokines, with or without WR1065 (100 μM), vs basal media containing cytokines; for fold expansion of HSC compared to cells grown in basal media: expansion protocol as defined above, HDAC inhibitor with or without WR1065; for fold expansion of HSC (Lin-, CD38-, CD34+, CD45RA-, CD133+, CD90+, CD49f+) higher than basal media containing cytokines: scriptaid 1 μM, WR1065 100 μM, FIG. 3
From the text: Human UCB units were collected with written informed pre-consent and ethical approval from Oxford and Berkshire National Research Ethical Committees and studies conducted with approval of the NHSBT research committee. UCB mononuclear cells (MNC) were isolated by density gradient centrifugation on lymphocyte separation medium 1077 (PAA Laboratories, Pasching, Austria; density<1.077 g/ml). CD133+ cells were isolated from the MNC with immunomagnetic beads (Miltenyi Biotec, Germany). After isolation, the cells were cryopreserved in 10% DMSO in FCS (fetal calf serum) and stored at −150° C. in aliquots of 1×10^5 cells/vial. Cells were analysed for the purity of the isolation with flow cytometry on a BD LSR II (BD Biosciences, CA) using CD34-APC, CD133-PE and the appropriate isotype controls (all Miltenyi Biotec). Bone marrow derived CD133+ cells were obtained commercially from Lonza and peripheral blood CD133+ cells were isolated using immunomagnetic beads as above from total peripheral blood mononuclear cells obtained commercially from Lonza Biologics.
Vials from 2 or 3 donors were thawed and pooled in StemSpan ACF media (Stem Cell Technologies) containing 100 ng/mL SCF, 100 ng/mL FLT3LG and 20 ng/mL TPO (all from Miltenyi Biotec). After counting, cells were plated in 96 well round bottom suspension plates at 20,000 cells/well in the above media. Cells were allowed to recover overnight in these conditions in a 37° C. humidified incubator with 5% CO2.
The next day cells were harvested from the plates counted, and seeded into 24 well Nanex plates (Compass Biomedical) or standard tissue culture treated plates at 2500 cells/well in 1 mL basal media (StemSpan ACF with 100 ng/mL SCF, 100 ng/mL FLT3LG and 20 ng/mL TPO) containing an HDAC inhibitor (for most experiments scriptaid was used at a concentration of 1 μM). An aliquot of cells was used for CFU analysis and another for flow cytometry analysis.
After 3 days in culture the media was either replaced or supplemented with fresh media with the cytokines (SCF, TPO and FLT3LG) and the HDAC inhibitors (scriptaid 1 μM). Sixteen to twenty hours prior to harvest WR1065 was added at a concentration of 100 μM. After total of 5 days in expansion, cells are harvested, counted and analysed by flow cytometry.
Cells were harvested, washed and stained in 3% FBS in PBS using a panel of pre-conjugated antibodies. Cells were incubated with antibodies on ice for 30 min, then washed twice in 3% FBS in PBS and resuspended in 250 uL of above buffer before being analysed using a BD Canto II flow cytometer. [Antibody panel was as follows: 5 Lin custom cocktail (CD235a, CD4, CD10, CD11b and CD19) APC-Vio770, CD38-PE-Vio770, CD34-PerCP-Vio700, CD133-PE, CD45RA-VioBlue, CD49f-FITC, CD90-APC (all from Miltenyi Biotec).]
Cell number was measured using flow cytometry with the aid of counting beads (CountBright beads Life Technologies).

[2] = test system: bone marrow derived CD34+ cells; conditions: pre-treatment of cells in vitro; cited from earlier work
[3] = UCB cells from three separate donors and a pooled sample, FIG. 13

| Compound | fold expansion of total nucleated cells (TNC) compared to cells grown in basal media [1] | fold expansion of HSC compared to cells grown in basal media [1] | further results |
| --- | --- | --- | --- |
| Cc1cc(C)cc(C(=O)NOCCCCCC(=O)NO)c1 [LMK235] | slightly lower | significantly increased | – |
| Nc1cc(F)ccc1NC(=O)/C=C/c1cnn(C/C=C/c2ccccc2)c1 [RGFP966] | increase | similar | – |
| CN1CCc2c(c3ccccc3n2Cc2ccc(C(=O)NO)cc2)C1 [Tubastatin A] | similar | significantly increased | – |
| NCCCNCCS [WR1065] | – | – | fold expansion of HSC (Lin-, CD38-, CD34+, CD45RA-, CD133+, CD90+, CD49f+) higher than basal media containing cytokines [1]: around 3 fold; enhancement of formation of CFU-GEMM and BFU-E colonies [2]: ≤ 38 fold |
| Cn1cc(CNCC2CCN(c3ncc(C(=O)NO)cn3)CC2)c2ccccc21 [quisinostat] | slightly lower | significantly increased | – |
| O=C(CCCCCN1C(=O)c2cccc3cccc(c23)C1=O)NO [scriptaid] | slightly reduced | – | fold expansion of HSC (Lin-, CD38-, CD34+, CD45RA-, CD133+, CD90+, CD49f+) higher than basal media containing cytokines [1]: approximately 10 fold; fold expansion of HSC compared to cells cultured in basal media, different culture plates ([1]; Nanex scaffolds, TC treated Corning 24 well plates or suspension Greiner Bio 24 well plates, effect similar across all surfaces, FIG. 14): significantly increased; fold expansion of HSC higher compared to basal media, average [1, 3]: 30 fold; fold expansion of HSC higher compared to basal media, range [1, 3]: 10-55 fold; proportion of CD133+/CD34+ cells compared to cells grown on cytokines alone ([1]; after 5 days in culture): increase |
| sodium phenylbutyrate | increase | increased | – |
